Laboratory results reported in patent publication US10100051B2, “Compound of 5-hydroxyl-1,7-naphthyridine substituted by aryloxy or heteroaryloxy, preparation method thereof and pharmaceutical use thereof” (SHENYANG SUNSHINE PHARMACEUTICAL CO. LTD., priority 2015, dated 2018).
Several values for one entry are separate records, joined by “and”; a condition that tells them apart may be missing. Equal values may be shown once.

Tested on: male Balb/c mice
Assay: Effect on increasing erythrocyte of normal mice (reticulocyte count)
Format: in vivo
Parameters: unit not given here
Experimental: Biological Example 3: Effect of the Compounds of the Present Invention on Increasing Erythrocyte of Normal Mice
80 male Balb/c mice were divided into 11 groups, with 8 animals for each drug group, 10 animals for blank control group. Drug group: AKB-6548, 100 mg/kg, oral administration, once a day×3; FG-4592, 25 mg/kg, oral administration, once a day×3; EPO, 100 IU/kg, Day 1 and Day 3, subcutaneous injection, as positive control groups. Each of the compounds of the present invention was orally administrated at 25 mg/kg, once a day×3. Four hours after the last administration, orbital blood of all animals were collected and treated with EDTA-K2 anticoagulant, and reticulocytes (RETIC) were counted with a blood cell automated analyzer.

[1] = 25 mg/kg oral, once a day × 3, four hours after the last administration
[2] = 100 mg/kg oral, once a day × 3, four hours after the last administration
[3] = 100 IU/kg subcutaneous injection, Day 1 and Day 3, four hours after the last administration

| Molecule | RETIC, Average [1] | RETIC, individual mice [1] | also measured |
| --- | --- | --- | --- |
| Cc1nc(C(=O)NCC(=O)O)c(O)c2ccc(Oc3ccccc3)cc12 [FG-4592-A, reference compound] | 3.73 | 3.8 (2×) and 4 (2×) and 3.5 and 4.4 and 3.4 and 3.6 |  |
| O=C(O)CNC(=O)c1ncc(-c2cccc(Cl)c2)cc1O [AKB-6548-A, reference compound] |  |  | RETIC, Average [2]: 4.75; RETIC, individual mice [2]: 6.1 and 4 (2×) and 4.2 (2×) and 4.9 and 5.3 (2×) |
| Cc1nc(C(=O)NCC(=O)O)c(O)c2ccc(Oc3ccc4c(c3)OCCO4)nc12 [Compound 12, 2-(2-((2,3-dihydrobenzo[b][1,4]dioxo-6-yl)oxy)-5-hydroxy-8-methyl-1,7-naphthyridine-6-formamido) acetic acid] | 5.24 | 5.4 and 5 (3×) and 6 and 5.6 (2×) and 4.3 |  |
| COc1ccc(Oc2ccc3c(O)c(C(=O)NCC(=O)O)nc(C)c3n2)cc1 [Compound 14, 2-(5-hydroxy-2-(4-methoxyphenoxy)-8-methyl-1,7-naphthyridine-6-formamido) acetic acid] | 5.73 | 6.1 and 6.6 and 5.8 (2×) and 6.5 and 5.7 and 4.4 and 4.9 |  |
| EPO: erythropoietin, glycoprotein hormone; exogenous positive control given subcutaneously |  |  | RETIC, Average [3]: 3.73; RETIC, individual mice [3]: 5.9 and 2.5 and 2.2 (2×) and 2.6 and 4.3 and 5.1 and 5 |
| Cc1nc(C(=O)NCC(=O)O)c(O)c2ccc(Oc3ccccc3)nc12 [Compound 1, 2-(5-hydroxy-8-methyl-2-phenoxy-1,7-naphthyridine-6-formamido) acetic acid] | 4.73 | 4.4 and 5.2 and 4.8 and 5 and 5.3 and 4.1 (2×) and 4.9 |  |
